{
  "source": "ChEMBL document CHEMBL1151907",
  "about": "“Cyclic glycopeptidomimetics through a versatile sugar-based scaffold” (Bioorg Med Chem Lett, 2009)",
  "key": {"[1]": {"molecular_target": "Integrin alpha-4/beta-1 (Homo sapiens) (UniProt P05556+P13612)", "assay": "Inhibition of integrin alpha-4-beta-1-mediated U937 and Jurkat cell adhesion to VCAM-1 coated surface up to 100 uM by BCECF fluorescence measurement", "type": "cell-based"}, "[2]": {"molecular_target": "T1, Substance-K receptor (Homo sapiens) (UniProt P21452)", "T1 sequence (whole entry)": "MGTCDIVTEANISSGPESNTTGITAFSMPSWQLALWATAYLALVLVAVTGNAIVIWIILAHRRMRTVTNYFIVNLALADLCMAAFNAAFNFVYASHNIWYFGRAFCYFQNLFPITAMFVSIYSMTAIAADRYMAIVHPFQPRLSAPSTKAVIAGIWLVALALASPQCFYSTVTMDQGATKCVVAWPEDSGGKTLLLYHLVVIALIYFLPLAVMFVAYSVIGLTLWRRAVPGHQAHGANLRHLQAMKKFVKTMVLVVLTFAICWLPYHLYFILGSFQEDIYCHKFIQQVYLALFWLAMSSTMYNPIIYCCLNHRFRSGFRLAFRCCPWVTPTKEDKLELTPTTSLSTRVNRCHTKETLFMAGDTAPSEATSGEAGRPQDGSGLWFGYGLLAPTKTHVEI", "assay": "Displacement of [125I]neurokinin A from human tachykinin NK2 receptor expressed in CHO cell at 10 uM", "type": "cell-based"}},
  "note": "Activity calls are given as the source filed them. The calls are words filed in the database; no cut-off is given here.",
  "data": [
    {"smiles": "CC[C@H](C)[C@@H]1NC(=O)[C@H](CCC(=O)O)NC(=O)[C@H]2O[C@@H]3OC(=C(C(=O)OC)S[C@@H]3[C@@H](O)[C@@H]2O)C[C@@H](C(=O)O)NC(=O)[C@H](C(C)C)NC(=O)[C@H](CC(=O)O)NC(=O)[C@H](CC(C)C)NC1=O", "values": [
      {"measurement": "inhibition", "setting": "[1]", "result": "inactive"}
    ]},
    {"smiles": "COC(=O)C1=C2C[C@@H](C(=O)OCc3ccccc3)NC(=O)[C@H](C)NC(=O)[C@H](Cc3ccccc3)NC(=O)[C@H](Cc3ccccc3)NC(=O)[C@H](Cc3ccccc3)NC(=O)[C@H](C)NC(=O)[C@H]3O[C@H](O2)[C@H](S1)[C@@H](O)[C@@H]3O", "values": [
      {"measurement": "inhibition", "setting": "[2]", "result": 25, "unit": "%"}
    ]}
  ]
}
